Where only a bound is given, the exact number is not on record here.

For this assay, the target named is T1, Human PDE10 (Homo sapiens, UniProt Q9Y233).
T1 construct: purchased BPA Bioscience (so in the source)
T1 sequence (Q9Y233 whole entry): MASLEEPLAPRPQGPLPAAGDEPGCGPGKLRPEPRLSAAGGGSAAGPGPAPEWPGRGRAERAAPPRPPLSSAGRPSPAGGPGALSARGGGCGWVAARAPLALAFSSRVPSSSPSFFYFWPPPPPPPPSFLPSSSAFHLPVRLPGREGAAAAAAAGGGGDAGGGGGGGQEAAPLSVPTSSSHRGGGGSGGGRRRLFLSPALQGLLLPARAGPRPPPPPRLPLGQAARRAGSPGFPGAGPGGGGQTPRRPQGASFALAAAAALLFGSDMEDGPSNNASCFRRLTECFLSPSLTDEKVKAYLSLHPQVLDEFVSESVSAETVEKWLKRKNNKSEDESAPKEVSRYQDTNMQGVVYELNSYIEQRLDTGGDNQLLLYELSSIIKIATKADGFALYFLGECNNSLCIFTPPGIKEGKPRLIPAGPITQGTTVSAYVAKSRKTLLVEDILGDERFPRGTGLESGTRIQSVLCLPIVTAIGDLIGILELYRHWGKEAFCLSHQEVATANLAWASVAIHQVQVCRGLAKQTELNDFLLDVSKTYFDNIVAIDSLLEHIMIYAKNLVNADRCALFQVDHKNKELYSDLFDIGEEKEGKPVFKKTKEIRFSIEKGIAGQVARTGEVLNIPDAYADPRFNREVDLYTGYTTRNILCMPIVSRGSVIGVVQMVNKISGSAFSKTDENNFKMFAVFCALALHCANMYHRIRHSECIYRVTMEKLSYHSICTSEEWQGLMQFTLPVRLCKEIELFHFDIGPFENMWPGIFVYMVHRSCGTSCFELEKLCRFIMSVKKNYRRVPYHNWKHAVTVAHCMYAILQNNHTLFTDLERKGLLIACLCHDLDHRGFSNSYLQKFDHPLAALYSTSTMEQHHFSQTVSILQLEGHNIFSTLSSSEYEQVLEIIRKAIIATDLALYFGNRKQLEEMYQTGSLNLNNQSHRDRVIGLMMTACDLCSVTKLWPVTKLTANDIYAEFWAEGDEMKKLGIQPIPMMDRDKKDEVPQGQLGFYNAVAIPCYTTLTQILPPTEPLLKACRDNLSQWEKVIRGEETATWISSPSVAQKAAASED
In words: Human PDE10 inhibitory effect (IMAP TR-FRET enzyme inhibition assay). It counts as biochemical. Conditions: PDE10 inhibitory activity, cAMP substrate. The procedure:
(Evaluation of Enzyme Inhibitory Activity: Human PDE10 Inhibitory Effect)
IMAP TR-FRET Phosphodiersterase Evaluation Assay Kit (Molecular Device) was used for the measurement. Ten μL of a diluted test compound having each concentration and 5 μL of the enzyme PDE10 (BPA Bioscience) that had been diluted to 2 ng/mL with 1×IMAP Reaction Buffer (prepared with 5× included with the kit, 10 mM Tris-HCl, pH=7.2, 10 mM MgCl2, 0.05% NaN3, and 0.1% BSA) containing 0.1% BSA were added to a 384-well plate (Corning). The obtained mixture was then pre-incubated at room temperature for 5 minutes. Thereafter, 5 μL of cAMP substrate solution which was included with the kit and diluted to 400 nM with 1×IMAP Reaction Buffer containing 0.1% BSA, was added to the reaction solution, and the obtained mixture was reacted at room temperature for 60 minutes. Thereafter, 60 μL of an IMAP TR-FRET Binding solution included with the kit was further added to the reaction solution, and the obtained mixture was then left for 3 hours or more. Subsequently, using ARVO SX (PerkinElmer), the fluorescent intensity of Terbium (Emission=490 nm) and TR-FRET (Emission=520 nm) in the reaction solution were measured at an excitation wavelength of 340 nm, so as to calculate the amount of the generated 5′-AMP. The count of a well to which a solvent had been added instead of the test compound was set at 0%, and the count of a well to which the enzyme PDE10 had not been added was set at 100%. Thus, the inhibitory activity of each test compound was calculated.
The PDE10 inhibitory activity of the test compound was indicated with an IC50 value. […] The test compounds are shown in Table 3 (Table 3-1 and Table 3-2).
The molecule `Cc1csc(-c2cnn(C)c2C(=O)NC2CCn3cc(-c4ccccc4)nc3C2)n1` (stereo not drawn) [Example 2.1, 1-methyl-4-(4-methylthiazol-2-yl)-N-(2-phenyl-5,6,7,8-tetrahydroimidazo[1,2-a]pyridin-7-yl)-1H-pyrazole-5-carboxamide] registered an IC50 of under 5 nM.

In the case of `Cc1nc(-c2cnn(C)c2C(=O)NC2CCn3cc(-c4ccccc4)nc3C2)sc1C` (stereo not drawn) [Example 2.2, 4-(4,5-dimethylthiazol-2-yl)-1-methyl-N-(2-phenyl-5,6,7,8-tetrahydroimidazo[1,2-a]pyridin-7-yl)-1H-pyrazole-5-carboxamide], the half-maximal inhibitory concentration (IC50) was under 5 nM.

In the case of `Cc1sc(-c2cnn(C)c2C(=O)NC2CCn3cc(-c4cccc(F)c4)nc3C2)nc1C(F)F` (stereo not drawn) [Example 2.7, 4-(4-(difluoromethyl)-5-methylthiazol-2-yl)-N-(2-(3-fluorophenyl)-5,6,7,8-tetrahydroimidazo[1,2-a]pyridin-7-yl)-1-methyl-1H-pyrazole-5-carboxamide], the IC50 is under 5 nM.

`Cc1nnc(-c2cnn(C)c2C(=O)NC2CCn3cc(-c4ccccc4)nc3C2)s1` (stereo not drawn) [Example 2.10, 1-methyl-4-(5-methyl-1,3,4-thiadiazol-2-yl)-N-(2-phenyl-5,6,7,8-tetrahydroimidazo[1,2-a]pyridin-7-yl)-1H-pyrazole-5-carboxamide]: the IC50 is under 5 nM.

For the molecule `Cc1ccnc(-c2cnn(C)c2C(=O)NC2CCn3cc(-c4ccccc4)nc3C2)n1` (stereo not drawn) [Example 2.16, 1-methyl-4-(4-methylpyrimidin-2-yl)-N-(2-phenyl-5,6,7,8-tetrahydroimidazo[1,2-a]pyridin-7-yl)-1H-pyrazole-5-carboxamide], the IC50 was 5 to 100 nM.

Molecule `Cn1cnc(-c2cnn(C)c2C(=O)NC2CCn3cc(-c4ccccc4)nc3C2)c1` (stereo not drawn) [Example 2.17, 1-methyl-4-(1-methyl-1H-imidazol-4-yl)-N-(2-phenyl-5,6,7,8-tetrahydroimidazo[1,2-a]pyridin-7-yl)-1H-pyrazole-5-carboxamide] returned an IC50 of 5 to 100 nM.

For `Cc1nnc(-c2cnn(C)c2C(=O)NC2CCn3cc(-c4cc(F)ccc4F)nc3C2)s1` (stereo not drawn) [Example 2.18, N-(2-(2,5-difluorophenyl)-5,6,7,8-tetrahydroimidazo[1,2-a]pyridin-7-yl)-1-methyl-4-(5-methyl-1,3,4-thiadiazol-2-yl)-1H-pyrazole-5-carboxamide], the IC50 was in the range of 5 to 100 nM.

Regarding `Cn1ncc(-c2nc(C(F)F)cs2)c1C(=O)NC1CCn2cc(-c3cccc(F)c3)nc2C1` (stereo not drawn) [Example 2.20, 4-(4-(difluoromethyl)thiazol-2-yl)-N-(2-(3-fluorophenyl)-5,6,7,8-tetrahydroimidazo[1,2-a]pyridin-7-yl)-1-methyl-1H-pyrazole-5-carboxamide], the IC50 was under 5 nM.

For `Cc1ccc(-c2cnn(C)c2C(=O)NC2CCn3cc(-c4ccccc4)nc3C2)nc1` (stereo not drawn) [Example 2.21, 1-methyl-4-(5-methylpyridin-2-yl)-N-(2-phenyl-5,6,7,8-tetrahydroimidazo[1,2-a]pyridin-7-yl)-1H-pyrazole-5-carboxamide], the IC50 fell in the range of 5 to 100 nM.

Molecule `Cc1ccnc(-c2cnn(C)c2C(=O)NC2CCn3cc(-c4cccc(F)c4)nc3C2)n1` (stereo not drawn) [Example 2.23, N-(2-(3-fluorophenyl)-5,6,7,8-tetrahydroimidazo[1,2-a]pyridin-7-yl)-1-methyl-4-(4-methylpyrimidin-2-yl)-1H-pyrazole-5-carboxamide] had an IC50 of 5 to 100 nM.

In turn, `Cc1cncc(-c2cnn(C)c2C(=O)NC2CCn3cc(-c4cccc(F)c4)nc3C2)n1` (stereo not drawn) [Example 2.24, N-(2-(3-fluorophenyl)-5,6,7,8-tetrahydroimidazo[1,2-a]pyridin-7-yl)-1-methyl-4-(6-methylpyrazin-2-yl)-1H-pyrazole-5-carboxamide] yielded an IC50 of 5 to 100 nM.

In the case of `Cn1ncc(-c2cscn2)c1C(=O)NC1CCn2cc(-c3ccccc3)nc2C1` (stereo not drawn) [Example 2.25, 1-methyl-N-(2-phenyl-5,6,7,8-tetrahydroimidazo[1,2-a]pyridin-7-yl)-4-(thiazol-4-yl)-1H-pyrazole-5-carboxamide], the IC50 fell in the range of 5 to 100 nM.

Turning to `Cn1ncc(-c2nccs2)c1C(=O)NC1CCn2cc(-c3ccccc3)nc2C1` (stereo not drawn) [Example 2.26, 1-methyl-N-(2-phenyl-5,6,7,8-tetrahydroimidazo[1,2-a]pyridin-7-yl)-4-(thiazol-2-yl)-1H-pyrazole-5-carboxamide], the IC50 was in the range of 5 to 100 nM.

In turn, `Cn1ncc(-c2nc(C(C)(C)C)cs2)c1C(=O)NC1CCn2cc(-c3ccccc3)nc2C1` (stereo not drawn) [Example 2.27, 4-(4-(tert-butyl)thiazol-2-yl)-1-methyl-N-(2-phenyl-5,6,7,8-tetrahydroimidazo[1,2-a]pyridin-7-yl)-1H-pyrazole-5-carboxamide] gave an IC50 of 5 to 100 nM.

`Cc1cccnc1-c1cnn(C)c1C(=O)Nc1cc2nc(-c3ccccc3)nn2cc1F` [Example 3.1, N-(6-fluoro-2-phenyl-[1,2,4]triazolo[1,5-a]pyridin-7-yl)-1-methyl-4-(3-methylpyridin-2-yl)-1H-pyrazole-5-carboxamide] showed an IC50 of under 5 nM.

Regarding `Cc1cnc(-c2cnn(C)c2C(=O)Nc2cc3nc(-c4ccccc4)nn3cc2F)cn1` [Example 3.2, N-(6-fluoro-2-phenyl-[1,2,4]triazolo[1,5-a]pyridin-7-yl)-1-methyl-4-(5-methylpyrazin-2-yl)-1H-pyrazole-5-carboxamide], the IC50 is under 5 nM.

On to `Cc1cccc(-c2cnn(C)c2C(=O)Nc2cc3nc(-c4ccccc4)nn3cc2F)n1` [Example 3.3, N-(6-fluoro-2-phenyl-[1,2,4]triazolo[1,5-a]pyridin-7-yl)-1-methyl-4-(6-methylpyridin-2-yl)-1H-pyrazole-5-carboxamide], for which the half-maximal inhibitory concentration (IC50) is under 5 nM.

In turn, `Cn1ncc(-c2cc(F)ccn2)c1C(=O)Nc1cc2nc(-c3ccccc3)nn2cc1F` [Example 3.4, N-(6-fluoro-2-phenyl-[1,2,4]triazolo[1,5-a]pyridin-7-yl)-4-(4-fluoropyridin-2-yl)-1-methyl-1H-pyrazole-5-carboxamide] had an IC50 of under 5 nM.

In turn, `Cc1ccnc(-c2cnn(C)c2C(=O)Nc2cc3nc(-c4ccccc4)nn3cc2F)c1` [Example 3.5, N-(6-fluoro-2-phenyl-[1,2,4]triazolo[1,5-a]pyridin-7-yl)-1-methyl-4-(4-methylpyridin-2-yl)-1H-pyrazole-5-carboxamide] yielded an IC50 of under 5 nM.

In turn, `Cn1ncc(-c2cccc(C(F)(F)F)n2)c1C(=O)Nc1cc2nc(-c3ccccc3)nn2cc1F` [Example 3.10, N-(6-fluoro-2-phenyl-[1,2,4]triazolo[1,5-a]pyridin-7-yl)-1-methyl-4-(6-(trifluoromethyl)pyridin-2-yl)-1H-pyrazole-5-carboxamide] registered an IC50 of under 5 nM.

`Cn1ncc(-c2nc(C(F)F)c(Cl)s2)c1C(=O)Nc1ccn2nc(-c3ccccc3)nc2c1` [Example 3.20, 4-(5-chloro-4-(difluoromethyl)thiazol-2-yl)-1-methyl-N-(2-phenyl-[1,2,4]triazolo[1,5-a]pyridin-7-yl)-1H-pyrazole-5-carboxamide]: the IC50 was under 5 nM.

Take `COc1ccccc1-c1nc2cc(NC(=O)c3c(-c4nc(C(F)F)c(Cl)s4)cnn3C)cc(Cl)n2n1` [Example 3.21, N-(5-chloro-2-(2-methoxyphenyl)-[1,2,4]triazolo[1,5-a]pyridin-7-yl)-4-(5-chloro-4-(difluoromethyl)thiazol-2-yl)-1-methy 1-1H-pyrazole-5-carboxamide]: the IC50 is 5 to 100 nM.

With `Cc1cc(-c2cnn(C)c2C(=O)Nc2cc3nc(-c4ccccc4)nn3cc2F)nc(C)n1` [Example 3.30, 4-(2,6-dimethylpyrimidin-4-yl)-N-(6-fluoro-2-phenyl-[1,2,4]triazolo[1,5-a]pyridin-7-yl)-1-methyl-1H-pyrazole-5-carboxamide], the IC50 is under 5 nM.

In turn, `COc1cc(-c2cnn(C)c2C(=O)Nc2cc3nc(-c4ccccc4)nn3cc2F)nc(OC)n1` [Example 3.40, 4-(2,6-dimethoxypyrimidin-4-yl)-N-(6-fluoro-2-phenyl-[1,2,4]triazolo[1,5-a]pyridin-7-yl)-1-methyl-1H-pyrazole-5-carboxamide] showed an IC50 of under 5 nM.

The molecule `Cc1ncc(C)c(-c2cnn(C)c2C(=O)Nc2cc3nc(-c4ccccc4C)nn3cc2F)n1` [Example 3.50, 4-(2,5-dimethylpyrimidin-4-yl)-N-(6-fluoro-2-(o-tolyl)-[1,2,4]triazolo[1,5-a]pyridin-7-yl)-1-methyl-1H-pyrazole-5-carboxamide] showed a half-inhibitory concentration (IC50) of under 5 nM.

The molecule `C[C@H]1CCCN1c1nc2cc(NC(=O)c3c(-c4nc(C(F)F)cs4)cnn3C)ccn2n1` [Example 4.1, (S)-4-(4-(difluoromethyl)thiazol-2-yl)-1-methyl-N-(2-(2-methylpyrrolidin-1-yl)-[1,2,4]triazolo[1,5-a]pyridin-7-yl)-1H-pyrazole-5-carboxamide] displayed an IC50 of under 5 nM.

Take `C[C@H]1CCCN1c1nc2cc(NC(=O)c3c(-c4nc(C(F)F)c(Cl)s4)cnn3C)ccn2n1` [Example 4.2, (S)-4-(5-chloro-4-(difluoromethyl)thiazol-2-yl)-1-methyl-N-(2-(2-methylpyrrolidin-1-yl)-[1,2,4]triazolo[1,5-a]pyridin-7-yl)-1H-pyrazole-5-carboxamide]: the IC50 is under 5 nM.

For the origin of these results see patent publication US8980888B2, “Pyrazole derivative” (Mochida Pharmaceutical Co., Ltd., priority 2013, dated 2015).
